Counter-ions that a name gives are not always drawn. Like-named read-outs stand apart in the source and are kept apart here. Marks after values point to notes of the source that are not given here.
Columns and labels:
Type in all cases: cell-based
human 5-HT2A [1] = target: T1, human 5-HT2A (Homo sapiens (Human), UniProt P28223); assay: cell-based; conditions: for Selectivity EC50 5-HT2C/EC50 5-HT2A: Ca2+/Fluo-4 assay, bounds are conservative estimates
5-HT2C = 5-HT2C (Homo sapiens (Human), UniProt P28335); assay: Ca2+/Fluo-4 assay, stable h5-HT2C-HEK293 cell line; conditions: for 5-HT2C Rmax ± S.E.M: % of the Rmax of 5-HT; for 5-HT2C agonist activity (n.a./w.a.): tested up to 50 μM;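 as to all read-outs here: Agonist-induced intracellular Ca2+ rise read by Fluo-4 fluorescence in HEK293 cells stably expressing the human 5-HT2C receptor, each compound run in duplicate on three or more occasions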
Sequence of 5-HT2C (P28335 whole entry, looked up): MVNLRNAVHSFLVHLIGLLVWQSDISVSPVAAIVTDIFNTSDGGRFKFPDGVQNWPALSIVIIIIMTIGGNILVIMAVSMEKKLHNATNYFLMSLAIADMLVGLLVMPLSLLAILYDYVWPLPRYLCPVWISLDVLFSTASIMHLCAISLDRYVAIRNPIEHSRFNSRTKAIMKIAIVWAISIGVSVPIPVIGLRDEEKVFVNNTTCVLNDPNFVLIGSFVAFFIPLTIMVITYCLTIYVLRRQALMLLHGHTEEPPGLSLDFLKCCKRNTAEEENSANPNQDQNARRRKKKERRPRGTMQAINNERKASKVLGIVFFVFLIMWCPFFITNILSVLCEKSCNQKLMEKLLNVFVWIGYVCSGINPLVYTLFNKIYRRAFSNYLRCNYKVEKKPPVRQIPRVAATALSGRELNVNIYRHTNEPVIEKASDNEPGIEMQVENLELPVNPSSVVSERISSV
Method: The functional properties of the compounds were characterised at stable HEK293 cell lines stably expressing the human 5-HT2A receptor or human 5-HT2C receptor in the Ca^2+/Fluo-4 assay essentially as previously described.^10 Briefly, the cells were split into poly-D-lysine-coated black 96-well plates with clear bottoms (6×10^4 cells/well). The following day the culture medium was aspirated and the cells were incubated in 50 μl assay buffer [Hanks Buffered Saline Solution containing 20 mM HEPES, 1 mM CaCl2, 1 mM MgCl2, 2.5 mM probenecid, pH 7.4] supplemented with 6 mM Fluo-4/AM at 37° C. for 1 hour. Next, the buffer was aspirated, the cells were washed once with 100 μl assay buffer, and then 100 μl assay buffer was added to the cells (in the antagonist experiments the compound was added at this point). […] The compounds were characterized in duplicate at least three times at each cell line.

human 5-HT2A [2] = target: T1, human 5-HT2A; assay: cell-based; conditions: IP assay; for 5-HT2A Rmax: % of Rmax of 5-HT; for EC50: duplicate determinations
5-HT2B = 5-HT2B (Homo sapiens (Human), UniProt P41595); assay: IP assay (Eurofins, IP1 HTRF), HEK293 cells; conditions: for 5-HT2B Rmax: % of Rmax of 5-HT; for Selectivity EC50 5-HT2B/EC50 5-HT2A: bounds are conservative estimates; for EC50: duplicate determinations, read-out: 5-HT2B EC50;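 as to all read-outs here: agonist effect read as cellular IP1 production by HTRF using a europium cryptate anti-IP1 antibody donor and D2-labeled IP1 acceptor, eight compound concentrations in each cell line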
Sequence of 5-HT2B (P41595 whole entry, looked up): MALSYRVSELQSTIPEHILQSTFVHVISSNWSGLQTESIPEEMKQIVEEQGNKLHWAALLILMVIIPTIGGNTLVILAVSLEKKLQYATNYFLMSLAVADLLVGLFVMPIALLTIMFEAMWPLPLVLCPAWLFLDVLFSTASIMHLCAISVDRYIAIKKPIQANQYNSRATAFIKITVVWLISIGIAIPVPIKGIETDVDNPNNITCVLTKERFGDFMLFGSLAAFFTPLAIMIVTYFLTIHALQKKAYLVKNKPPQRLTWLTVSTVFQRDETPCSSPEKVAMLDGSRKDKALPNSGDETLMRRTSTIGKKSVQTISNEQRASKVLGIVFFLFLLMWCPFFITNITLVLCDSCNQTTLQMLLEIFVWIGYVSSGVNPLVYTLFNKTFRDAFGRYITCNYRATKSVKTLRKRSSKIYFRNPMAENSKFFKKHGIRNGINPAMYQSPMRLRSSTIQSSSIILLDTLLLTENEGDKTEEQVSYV
Method: The agonist properties of the compounds were characterized at HEK293 cell lines expressing the human 5-HT2A, human 5-HT2B or human 5-HT2C receptors in an IP assay essentially as previously described.^19 The testing was performed by Eurofins. In the assay, the agonist activity of the compound at the receptors is investigated by measuring its effect on IP1 production in the cell using the Homogeneous Time Resolved Fluorescence (HTRF) detection method. […] Following incubation, the cells were lysed, and the fluorescence acceptor (D2-labeled IP1) and fluorescence donor (anti-IP1 antibody labeled with europium cryptate) were added. […] The test compounds were characterized in eight different concentrations in duplicate at each of the three cell lines.

[3] = agonist potency, n = 3-4, read-out: 5-HT2A EC50
[4] = agonist potency, n = 3-4, read-out: 5-HT2C EC50
[5] = % of the Rmax of 5-HT, hydrochloride
[6] = agonist potency, n = 3-4, read-out: 5-HT2A [pEC50 ± S.E.M.] (converted)

| SMILES | 5-HT2A Rmax ± S.E.M (human 5-HT2A [1]; % of the Rmax of 5-HT) [%] | Selectivity EC50 5-HT2C/EC50 5-HT2A (human 5-HT2A [1]) | EC50 (human 5-HT2A [1]; [3]) [µM] | EC50 (5-HT2C; [4]) [µM] | 5-HT2A Rmax (human 5-HT2A [2]) [%] | EC50 (human 5-HT2A [2]) [µM] | 5-HT2B Rmax (5-HT2B) [%] | Selectivity EC50 5-HT2B/EC50 5-HT2A (5-HT2B) | EC50 (5-HT2B) [µM] | EC50 (human 5-HT2A [1]; [6]) [µM] | further results |
| --- | --- | --- | --- | --- | --- | --- | --- | --- | --- | --- | --- |
| COc1cc(C(F)(F)F)c(OC)cc1[C@@H]1CNC[C@@H](C)C1.Cl (relative stereo) [Compound 36, cis or trans 3-(2,5-dimethoxy-4-(trifluoromethyl)phenyl)-5-methylpiperidine hydrochloride] | 68 ± 2 | 8.2 | 0.048 | 0.4 | 61 | 0.041 | 39 | 2.9 | 0.12 |  | 5-HT2A [pEC50 ± S.E.M.] (human 5-HT2A [1]; agonist potency, n = 3-4): [7.32 ± 0.10]; 5-HT2C Rmax ± S.E.M (5-HT2C): 43 ± 6%; 5-HT2C [pEC50 ± S.E.M.] (5-HT2C; agonist potency, n = 3-4): [6.40 ± 0.09] |
| COc1cc(C(F)(F)F)c(OC)cc1C1CCC(C)NC1 (single isomer, unassigned) [Compound 37, 5-(2,5-dimethoxy-4-(trifluoromethyl)phenyl)-2-methylpiperidine hydrochloride] |  |  | 0.27 | 3.4 |  | 1.5 |  |  | 0.62 | 0.263 | 5-HT2A Rmax ± S.E.M (human 5-HT2A [1]; [5]): 90 ± 10%; Selectivity EC50 5-HT2C/EC50 5-HT2A (human 5-HT2A [1]; hydrochloride): 13; 5-HT2C Rmax ± S.E.M (5-HT2C): 33 ± 5%; 5-HT2A Rmax (human 5-HT2A [2]; hydrochloride): 110%; 5-HT2B Rmax (5-HT2B; hydrochloride): 54%; Selectivity EC50 5-HT2B/EC50 5-HT2A (5-HT2B; hydrochloride): 0.4 |
| COc1cc(C(F)(F)F)c(OC)cc1C1CCC(C)NC1 (single isomer, unassigned) [Compound 38, 5-(2,5-dimethoxy-4-(trifluoromethyl)phenyl)-2-methylpiperidine hydrochloride] |  |  | 0.16 |  |  | 0.12 |  |  | 2.2 | 0.155 | 5-HT2A Rmax ± S.E.M (human 5-HT2A [1]; [5]): 38 ± 4%; Selectivity EC50 5-HT2C/EC50 5-HT2A (human 5-HT2A [1]; hydrochloride): >300^e; 5-HT2C agonist activity (n.a./w.a.) (5-HT2C): w.a.; 5-HT2A Rmax (human 5-HT2A [2]; hydrochloride): 60%; 5-HT2B Rmax (5-HT2B; hydrochloride): 29%; Selectivity EC50 5-HT2B/EC50 5-HT2A (5-HT2B; hydrochloride): 18 |
| COc1cc([C@@H]2CCCNC2)c(OC)cc1Cl [Compound 10, (S)-3-(4-Chloro-2,5-dimethoxyphenyl)piperidine] |  |  | 0.066 | > 50 | 62 | 0.38 | 50 |  | 0.24 |  | 5-HT2C agonist activity (n.a./w.a.) (5-HT2C): n.a. [@ 50 μM]^a (no agonist activity: the compound did not evoke significant responses at concentrations up to 50 μM) |
| COc1cc([C@@H]2CCCNC2)c(OC)cc1Br [Compound 12, (S)-3-(4-bromo-2,5-dimethoxyphenyl)piperidine] |  |  | 0.069 | > 50 | 70 | 0.25 | 48 |  | 0.19 |  |  |
| COc1cc([C@@H]2CCCNC2)c(OC)cc1I [Compound 14, (S)-3-(4-Iodo-2,5-dimethoxyphenyl)piperidine] |  |  |  | > 50 | 72 | 0.045 | 57 |  | 0.17 | 0.0372 |  |
| COc1cc([C@@H]2CCCNC2)c(OC)cc1C#N [Compound 16, (S)-2,5-dimethoxy-4-(piperidin-3-yl)benzonitrile] |  |  | 0.27 | > 50 | 77 | 0.98 | 45 |  | 5 | 0.275 |  |
| COc1cc([C@@H]2CCCNC2)c(OC)cc1SC.Cl [Compound 18, (S)-3-(2,5-dimethoxy-4-(methylthio)phenyl)piperidine hydrochloride] |  |  |  | 0.51 | 72 | 0.27 | 64 |  | 0.18 | 0.0257 |  |
| CCOc1cc([C@@H]2CCCNC2)c(OC)cc1C(F)(F)F.Cl [Compound 20, (S)-3-(5-ethoxy-2-methoxy-4-(trifluoromethyl)phenyl)piperidine hydrochloride] | 95 ± 1 |  | 0.01 | 0.29 | 79 | 0.036 | 57 |  | 0.58 | 0.0102 |  |
| CCOc1cc(C(F)(F)F)c(OCC)cc1[C@@H]1CCCNC1.Cl [Compound 22, (S)-3-(2,5-diethoxy-4-(trifluoromethyl)phenyl)piperidine hydrochloride] | 47 ± 6 | >300^e | 0.1 |  | 54 | 0.17 |  | >1,000^c | > 100 | 0.102 |  |
| COc1cc([C@@H]2CCCNC2)c(OC)cc1C.Cl [Compound 24, (S)-3-(2,5-dimethoxy-4-methylphenyl)piperidine hydrochloride] |  |  | 0.1 |  | 67 | 0.56 | 38 |  | 0.36 | 0.105 |  |
| COc1cc([C@@H]2CCCNC2)c(OC)cc1SC(C)C [Compound 26, (S)-3-(4-(isopropylthio)-2,5-dimethoxyphenyl)piperidine] |  |  | 0.16 |  | 72 | 1.1 | 43 |  | 1.2 | 0.155 |  |
| CCSc1cc(OC)c([C@@H]2CCCNC2)cc1OC.Cl [Compound 28, (S)-3-(2,5-dimethoxy-4-(ethylthio)phenyl)piperidine hydrochloride] |  |  |  |  | 62 | 0.18 | 55 |  | 0.24 |  |  |
| CCOc1cc(C(F)(F)F)c(OC)cc1[C@@H]1CCCNC1.Cl [Compound 30, (S)-3-(2-ethoxy-5-methoxy-4-(trifluoromethyl)phenyl)piperidine hydrochloride] | 40 ± 3 |  |  |  | 35 | 0.14 | 26 |  | 1.2 | 0.038 |  |
| CCc1cc(OC)c([C@@H]2CCCNC2)cc1OC.Cl [Compound 32, (S)-3-(4-ethyl-2,5-dimethoxyphenyl)piperidine hydrochloride] | 79 ± 4 |  |  |  | 85 | 0.11 | 54 |  | 0.28 | 0.0407 |  |
| CCOc1cc([C@@H]2CCCNC2)c(OC)cc1CC.Cl [Compound 34, (S)-3-(5-ethoxy-4-ethyl-2-methoxyphenyl)piperidine hydrochloride] | 88 ± 4 | 16 | 0.052 | 0.84 | 78 | 0.16 | 50 | 5.4 | 0.86 | 0.0513 | 5-HT2C Rmax ± S.E.M (5-HT2C): 28 ± 4% |
| COc1cc(C(F)(F)F)c(OC)cc1C1CCCNC1C.Cl (stereo not drawn) [Compound 35, 3-(2,5-dimethoxy-4-(trifluoromethyl)phenyl)-2-methylpiperidine hydrochloride] | 75 ± 4 | 41 | 0.073 | 3 | 70 | 0.26 | 28 | 3.3 | 0.85 |  | 5-HT2C Rmax ± S.E.M (5-HT2C): 21 ± 2%; EC50 (5-HT2C; agonist potency, n = 3-4, read-out: 5-HT2C [pEC50 ± S.E.M.] (converted)): 2.95 µM |
| COc1cc([C@@H]2CCCNC2)c(OCF)cc1C(F)(F)F [Compound 39, (S)-3-(2-(fluoromethoxy)-5-methoxy-4-(trifluoromethyl)phenyl)piperidine] | 40 ± 5 | >300^e | 0.15 |  | 60 | 0.3 | 54 | 3.6 | 1.1 |  |  |
| CCOc1cc(CC)c(OC)cc1[C@@H]1CCCNC1 [Compound 43, (S)-3-(2-ethoxy-4-ethyl-5-methoxyphenyl)piperidine] | 42 ± 6 | >1,000^e | 0.14 | > 50 | 45 | 0.67 | 11 | 1.6 | 1.1 | 0.138 |  |
| COc1cc(C(F)(F)F)c(F)cc1[C@@H]1CCCNC1.Cl [Compound 51, (S)-3-(5-fluoro-2-methoxy-4-(trifluoromethyl)phenyl)piperidine hydrochloride] | 79 ± 5 | >100^e | 0.14 |  | 59 | 0.26 | 37 | 2.8 | 0.74 |  |  |
| COc1cc(C(F)(F)F)c(OC)cc1[C@@H]1CCCN(C)C1 [Compound 61, (S)-3-(2,5-dimethoxy-4-(trifluoromethyl)phenyl)-1-methylpiperidine] | 19 ± 2 |  | 0.39 | 0.92 |  |  |  |  |  | 0.398 | loss of potency at 5-HT2A compared to compound 8 (factor) (human 5-HT2A [1]; nitrogen substituents (tertiary amines)): ~20 |
| COc1cc(CC(C)N)c(OC)cc1I (stereo not drawn) [drawing 22, reference compound] |  |  |  |  |  |  |  |  |  |  | 5-HT2A Rmax ± S.E.M (human 5-HT2A [1]): 88 ± 7%; EC50 (5-HT2C; 5-HT2C [pEC50 ± S.E.M.], agonist potency, n = 3-4): 0.00339 µM; 5-HT2C Rmax ± S.E.M (5-HT2C): 83 ± 8% |

From patent publication US11642336B2, “5-HT2A agonists for use in treatment of depression” (priority 2019, dated 2023)
